Measured values as given in PubChem BioAssay (NCI).
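48-hour exposure; five concentrations; linearly interpolated endpoints. TGI: concentration producing complete growth inhibition.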

Experiments:
Assay in all cases: inhibition of tumour cell growth, NCI panel, 48 h
SF-295 CNS = test system: SF-295 CNS
SF-539 CNS = test system: SF-539 CNS
CAKI-1 renal = test system: CAKI-1 renal
NCI/ADR-RES ovarian = test system: NCI/ADR-RES ovarian
SW-620 colon = test system: SW-620 colon
NCI-H23 lung = test system: NCI-H23 lung
SNB-75 CNS = test system: SNB-75 CNS
UO-31 renal = test system: UO-31 renal
MCF7 breast = test system: MCF7 breast
LOX IMVI melanoma = test system: LOX IMVI melanoma
M14 melanoma = test system: M14 melanoma
HOP-92 NSCLC = test system: HOP-92 NSCLC
SN12C renal = test system: SN12C renal
UACC-257 melanoma = test system: UACC-257 melanoma
HCT-15 colon = test system: HCT-15 colon
A549 NSCLC = test system: A549 NSCLC
OVCAR-5 ovarian = test system: OVCAR-5 ovarian
786-0 renal = test system: 786-0 renal
ACHN renal = test system: ACHN renal

SMILES | TGI (SF-295 CNS) [µM] | TGI (SF-539 CNS) [µM] | TGI (CAKI-1 renal) [µM] | TGI (NCI/ADR-RES ovarian) [µM] | TGI (SW-620 colon) [µM] | TGI (NCI-H23 lung) [µM] | TGI (SNB-75 CNS) [µM] | TGI (UO-31 renal) [µM] | TGI (MCF7 breast) [µM] | TGI (LOX IMVI melanoma) [µM] | TGI (M14 melanoma) [µM] | TGI (HOP-92 NSCLC) [µM] | TGI (SN12C renal) [µM] | TGI (UACC-257 melanoma) [µM] | TGI (HCT-15 colon) [µM] | TGI (A549 NSCLC) [µM] | TGI (OVCAR-5 ovarian) [µM] | TGI (786-0 renal) [µM] | TGI (ACHN renal) [µM]
COc1cc(/C=C/c2cc(/C=C/c3ccc(O)c(OC)c3)oc(=O)c2)ccc1O | 19.4 | > 100 | 16.1 | 26.1 | > 24.5 | > 24.7 | 4.61 | > 100 | > 100 | 15.7 | > 100 | 32.6 | > 71.4 | > 29.6 | > 34.4 | > 100 | > 100 | 34.9 | 15.4
C=CC(C)CCC(C/C=C(\C)CCC=C(C)C)C(=C)CCCC(C)C (stereo not drawn) | > 100 | > 100 | > 100 | > 100 | > 100 | > 100 | > 100 | > 100 | > 100 | > 100 | > 100 | > 100 | > 100 | > 100 | > 100 | > 100 | > 100 | > 100 | > 100
COc1cc2c(cc1OCc1ccccc1)NC(=S)[C@@H]1CCCN1C2=S | > 100 | > 100 | > 100 | > 100 | > 100 | > 100 | 90.3 | > 100 | > 100 | > 100 | > 100 | > 100 | > 100 | > 100 | > 100 | > 100 | > 100 | > 100 | > 100
COc1cc2c(cc1O)[C@@H]1Cc3c(cc(OC)c(OC)c3Oc3cc4c(cc3OC)CCN(C)[C@@H]4Cc3ccc(O)cc3)[C@H](C2)N1C | > 100 | 65.2 | > 100 | > 100 | > 100 | > 100 | > 80 | > 100 | > 100 | 37.7 | 33.9 | > 100 | > 100 | 44.6 | > 100 | > 100 | > 100 | > 100 | > 100
O=[N+]([O-])/C(C(Cl)=C(Cl)Cl)=C(/Sc1ccccc1)N1CCCCC1 | > 100 | > 100 | > 100 | > 100 | > 100 | > 100 | > 100 | > 100 | > 100 | > 100 | > 100 | > 100 | > 100 | 99.1 | > 100 | > 100 | > 100 | > 100 | > 100
O=C(c1cccc(C(=O)c2ccc3c4c(cccc24)C(=O)N(c2ccccc2)C3=O)c1)c1ccc2c3c(cccc13)C(=O)N(c1ccccc1)C2=O | > 100 | > 100 | > 100 | > 100 | > 100 | > 100 | > 100 | > 100 | > 100 | > 100 | > 100 | > 100 | > 100 | > 100 | > 100 | > 100 | > 100 | > 100 | > 100
CCS(=O)(=O)CCn1cnc2c1c(=O)n(C)c(=O)n2C | > 100 | > 100 | > 100 | > 100 | > 100 | > 100 | > 100 | > 100 | > 100 | > 100 | > 100 | > 100 | > 100 | > 100 | > 100 | > 100 | > 100 | > 100 | > 100
C=C1CN(Cc2ccccc2)[C@@H]2CCCCC[C@H](C#N)[C@H]12 | > 30.7 | > 100 | > 100 | > 100 | > 100 | > 100 | > 100 | > 100 | > 100 | > 100 | > 100 | > 93 | > 100 | > 100 | > 100 | > 100 | > 100 | > 100 | > 100
CC1(C)CC(=O)c2c(nc(SSc3nc4c(c(-c5ccccc5)c3C#N)C(=O)CC(C)(C)C4)c(C#N)c2-c2ccccc2)C1 | > 10 | > 10 | > 10 | > 10 | > 10 | > 10 | > 10 | > 10 | > 10 | > 10 | > 10 | > 10 | > 10 | > 10 | > 10 | > 10 | > 10 | > 10 | > 10
COc1ccc(C2SC(C)C(=O)N2c2nc(-c3nc(-c4ccc(Cl)cc4)cs3)cs2)cc1 (stereo not drawn) | > 100 | > 100 | > 100 | > 100 | > 100 | > 100 | > 100 | > 100 | > 100 | > 100 | > 100 | > 100 | > 100 | > 100 | > 100 | > 100 | > 100 | > 100 | > 100
CC(=O)OC1CC[C@]2(C)C3CC[C@@]4(C)C(CCC4[C@H](C)CCCC(C)C)[C@@H]3CCC2(Br)C1 (stereo partly drawn) | > 50 | 18.5 | 25 | > 50 | 19.3 | 36.5 | > 50 | 24.6 | 23.3 | 29.4 | > 50 | > 50 | > 50 | > 50 | 33.2 | > 50 | > 50 | 17.5 | 20.2
S=c1sc2nc(Cl)nc(Cl)c2s1 | 31.7 | 41.6 | 17.8 | 38.2 | 21.1 | 39.3 | 34.8 | 25.1 | 25.2 | 30.3 | 16.9 | 17.4 | 32.4 | 31.9 | 30.7 | 42.4 | 29.5 | 12.9 | 26.9
